The source of these data is US11826351B2, “Compounds useful as kinase inhibitors” (Loxo Oncology, Inc., priority 2015, dated 2023).

pIC50: −log10 of the molar value. Read-outs that look alike come from different tables or passages of the source. Bounds are passed on as bounds.

The target in test [1] is T1, Recombinant BTK^WT kinase (Homo sapiens, UniProt Q06187).
T1 construct: purchased Invitrogen
Description: BTK WT binding affinity (LanthaScreen TR-FRET). The settings on record: Kinase Tracer 236, 5 h incubation. In a few lines:
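Tracer-displacement TR-FRET: 2.5 nM recombinant BTK^WT, 2 nM Eu anti-His antibody and 15 nM Kinase Tracer 236 incubated with varying inhibitor concentrations for 5 h in Kinase Buffer A. Signal read at 340 nm excitation, 615/665 nm emission; IC50 from variable-slope log[inhibitor]–response fit.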
A general note: TR-FRET usually uses a lanthanide donor and a delayed reading to cut background.

In test [2] the target is T2, Recombinant BTK^C481S kinase (Homo sapiens, UniProt Q06187, C481S).
T2 construct: purchased SignalChem
T2 sequence (Q06187 whole entry C481S): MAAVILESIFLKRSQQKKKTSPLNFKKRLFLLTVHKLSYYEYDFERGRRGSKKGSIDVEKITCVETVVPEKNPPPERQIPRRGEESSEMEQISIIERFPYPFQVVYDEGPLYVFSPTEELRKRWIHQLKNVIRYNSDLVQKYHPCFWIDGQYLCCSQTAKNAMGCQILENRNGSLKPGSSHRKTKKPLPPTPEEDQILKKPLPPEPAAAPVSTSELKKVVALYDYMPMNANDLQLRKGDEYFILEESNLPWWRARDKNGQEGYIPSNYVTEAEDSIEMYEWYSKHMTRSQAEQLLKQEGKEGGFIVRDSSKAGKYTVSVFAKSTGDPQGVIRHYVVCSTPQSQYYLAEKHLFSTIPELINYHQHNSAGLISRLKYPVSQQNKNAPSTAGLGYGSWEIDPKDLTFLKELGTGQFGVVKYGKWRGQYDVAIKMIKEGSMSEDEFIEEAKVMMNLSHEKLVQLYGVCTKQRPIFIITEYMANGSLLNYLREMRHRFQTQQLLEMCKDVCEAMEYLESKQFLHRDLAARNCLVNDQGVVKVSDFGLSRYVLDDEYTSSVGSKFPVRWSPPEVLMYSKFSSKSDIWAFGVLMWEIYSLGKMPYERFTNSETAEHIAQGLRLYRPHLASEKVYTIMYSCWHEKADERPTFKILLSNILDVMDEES
Briefly: BTK C481S binding affinity (LanthaScreen TR-FRET). The settings on record: Kinase Tracer 236, 5 h incubation. A digest of the protocol: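 BTK C481S tracer-displacement TR-FRET: 5 nM His-tagged kinase, 2 nM Eu anti-His antibody and 30 nM Kinase Tracer 236 incubated with titrated inhibitor for 5 h in Kinase Buffer A. Read at 340 nm excitation, 615/665 nm emission; IC50 from variable-slope log[inhibitor]–response fit.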

The target of another test is T3, Recombinant EGFR (Homo sapiens, UniProt P00533).
T3 construct: purchased Invitrogen
T3 sequence (P00533 25-1210): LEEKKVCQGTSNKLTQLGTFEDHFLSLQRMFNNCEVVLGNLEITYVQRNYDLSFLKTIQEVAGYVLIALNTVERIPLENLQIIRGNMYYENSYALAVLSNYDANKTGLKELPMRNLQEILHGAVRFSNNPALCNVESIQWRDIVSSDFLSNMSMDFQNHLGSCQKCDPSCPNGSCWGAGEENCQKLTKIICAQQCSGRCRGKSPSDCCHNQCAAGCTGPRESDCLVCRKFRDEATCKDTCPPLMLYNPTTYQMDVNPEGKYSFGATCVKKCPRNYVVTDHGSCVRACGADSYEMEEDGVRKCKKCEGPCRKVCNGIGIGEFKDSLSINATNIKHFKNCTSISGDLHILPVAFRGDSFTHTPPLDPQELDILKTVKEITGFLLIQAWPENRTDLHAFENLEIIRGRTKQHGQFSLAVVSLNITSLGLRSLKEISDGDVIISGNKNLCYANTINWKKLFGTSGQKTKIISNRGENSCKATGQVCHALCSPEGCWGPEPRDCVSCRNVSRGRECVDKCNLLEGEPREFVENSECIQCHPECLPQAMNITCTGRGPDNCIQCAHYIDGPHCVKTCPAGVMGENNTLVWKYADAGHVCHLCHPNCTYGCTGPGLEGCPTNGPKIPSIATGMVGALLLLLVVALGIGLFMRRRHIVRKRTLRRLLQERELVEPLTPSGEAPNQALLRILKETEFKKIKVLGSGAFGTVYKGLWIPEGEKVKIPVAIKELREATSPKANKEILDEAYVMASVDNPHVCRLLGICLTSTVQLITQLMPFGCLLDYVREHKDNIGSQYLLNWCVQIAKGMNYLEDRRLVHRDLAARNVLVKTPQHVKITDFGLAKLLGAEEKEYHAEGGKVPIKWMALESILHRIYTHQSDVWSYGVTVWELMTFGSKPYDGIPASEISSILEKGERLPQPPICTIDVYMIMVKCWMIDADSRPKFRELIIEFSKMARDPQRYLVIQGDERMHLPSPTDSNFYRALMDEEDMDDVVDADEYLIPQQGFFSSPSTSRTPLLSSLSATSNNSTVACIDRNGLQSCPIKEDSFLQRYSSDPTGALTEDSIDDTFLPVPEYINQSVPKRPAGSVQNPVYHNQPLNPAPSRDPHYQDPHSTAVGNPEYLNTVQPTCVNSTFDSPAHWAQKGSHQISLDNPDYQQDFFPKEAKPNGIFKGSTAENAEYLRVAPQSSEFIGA
Description: EGFR binding affinity (LanthaScreen TR-FRET). Conditions: Kinase Tracer 199, 5 h incubation. A digest of the protocol: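 TR-FRET binding (LanthaScreen) with recombinant EGFR; signal measured across a compound concentration range. IC50 obtained by fitting RFU against log[inhibitor] to a variable-slope model.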

Test [3] deals with OCI-Ly10 human DLBCL cells. Description: OCI-Ly10 anti-proliferative activity (Resazurin). It counts as cell-based. Conditions: OCI-Ly10 cells, 72 h compound treatment, Resazurin, read-out: Proliferation Assay OCI-Ly10-20% FBS. A digest of the protocol: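 OCI-Ly10 human DLBCL cells, whose growth depends on NFκB signalling, were seeded at 7.5×10^3 cells per well in 96-well plates with a range of compound concentrations and kept at 37° C for 72 h. Resazurin was then added, and after 5 h fluorescence was read at 590 nm.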
In general terms: Alamar Blue is a resazurin reagent that responds to reducing activity.

T1 sequence (Q06187 whole entry): as the sequence (Q06187 whole entry C481S) above, with S481C counted along it

As for `COc1ccc(F)cc1C(=O)NCc1ccc(-c2nn(C3CCOCC3)c(N)c2C(N)=O)c(F)c1` [Example 106, 5-amino-3-[2-fluoro-4-[[(5-fluoro-2-methoxy-benzoyl)amino]methyl]phenyl]-1-tetrahydropyran-4-yl-pyrazole-4-carboxamide], the pIC50 was over 8.00 in test [1]; over 8.00 in test [2]; under 5.00 on Recombinant EGFR; 6.00 to 7.00 in test [3] (Homo sapiens, OCI-Ly10, 72 h).
For the compound `COc1ccc(F)cc1C(=O)NCc1ccc(-c2nn(C(C)C3CCOCC3)c(N)c2C(N)=O)cc1` (stereo not drawn) [Example 161, 5-amino-3-[4-[[(5-fluoro-2-methoxy-benzoyl)amino]methyl]phenyl]-1-(1-tetrahydropyran-4-ylethyl)pyrazole-4-carboxamide], the pIC50 in test [1] is 7.00 to 8.00; in test [2] it was over 8.00; at Recombinant EGFR, under 5.00; in test [3] (Homo sapiens, OCI-Ly10, 72 h), 6.00 to 7.00.
On the same counts, the results for `COc1ccccc1C(=O)NCc1ccc(-c2nn(C3CCCOC3)c(N)c2C(N)=O)cc1` (stereo not drawn) [Example 80, 5-amino-3-[4-[[(2-methoxybenzoyl)amino]methyl]phenyl]-1-tetrahydropyran-3-yl-pyrazole-4-carboxamide] are over 8.00, over 8.00, 6.00 to 7.00 and 7.00 to 8.00.
For `COc1ccccc1C(=O)NCc1ccc(-c2nn(C3CCC(O)CC3)c(N)c2C(N)=O)cc1` (single isomer, unassigned) [Example 34a, 5-Amino-1-(4-hydroxycyclohexyl)-3-[4-[[(2-methoxybenzoyl)amino]methyl]phenyl]pyrazole-4-carboxamide], the pIC50 in test [1] was over 8.00; in test [2], over 8.00; on Recombinant EGFR, 6.00 to 7.00; in test [3], 7.00 to 8.00.
Take `COc1ccccc1C(=O)NCc1cc(F)c(-c2nn(C3CCOCC3)c(N)c2C(N)=O)cc1F` [Example 148, 5-amino-3-[2,5-difluoro-4-[[(2-methoxybenzoyl)amino]methyl]phenyl]-1-tetrahydropyran-4-yl-pyrazole-4-carboxamide]: the pIC50 in test [1] was 7.00 to 8.00; in test [2], over 8.00; on Recombinant EGFR, under 5.00; in test [3] (Homo sapiens, OCI-Ly10, 72 h) it was 6.00 to 7.00.
Regarding `COc1ccccc1C(=O)NCc1ccc(-c2nn(C3CCOC3C)c(N)c2C(N)=O)cc1` (single isomer, unassigned) [Example 84, 5-amino-3-[4-[[(2-methoxybenzoyl)amino]methyl]phenyl]-1-[2-methyltetrahydrofuran-3-yl]pyrazole-4-carboxamide], the pIC50 in test [1] was 7.00 to 8.00; in test [2], over 8.00; on Recombinant EGFR it was 5.00 to 6.00; in test [3] it was 5.00 to 6.00.
For `COc1ccccc1C(=O)NCc1ccc(-c2nn(C(C)C)c(N)c2C(N)=O)cc1` [Example 19, 5-amino-1-isopropyl-3-[4-[[(2-methoxybenzoyl)amino]methyl]phenyl]pyrazole-4-carboxamide], the pIC50 was over 8.00 in test [1]; over 8.00 in test [2]; 6.00 to 7.00 on Recombinant EGFR; 7.00 to 8.00 in test [3] (Homo sapiens, OCI-Ly10, 72 h).
On to `CNc1c(C(N)=O)c(-c2ccc(CNC(=O)c3ccccc3OC)cc2)nn1C1CCOC1` (stereo not drawn) [Example 97, 3-[4-[[(2-methoxybenzoyl)amino]methyl]phenyl]-5-(methylamino)-1-tetrahydrofuran-3-yl-pyrazole-4-carboxamide], for which the pIC50 in test [1] is 7.00 to 8.00; in test [2], over 8.00; at Recombinant EGFR, 5.00 to 6.00; in test [3] (Homo sapiens, OCI-Ly10, 72 h), 5.00 to 6.00.
Turning to `CNc1c(C(N)=O)c(-c2ccc(CNC(=O)c3ccccc3OC)cc2)nn1C1CCOCC1` [Example 91, 3-[4-[[(2-methoxybenzoyl)amino]methyl]phenyl]-5-(methylamino)-1-tetrahydropyran-4-yl-pyrazole-4-carboxamide], the pIC50 in test [1] was 7.00 to 8.00; in test [2] it was over 8.00; at Recombinant EGFR, 5.00 to 6.00; in test [3] (Homo sapiens, OCI-Ly10, 72 h), 6.00 to 7.00.
On the same counts, the results for `COc1ccccc1C(=O)NCc1ccc(-c2nn(C3CC(C)(C)OC3(C)C)c(N)c2C(N)=O)cc1` (stereo not drawn) [Example 82, 5-amino-3-[4-[[(2-methoxybenzoyl)amino]methyl]phenyl]-1-(2,2,5,5-tetramethyltetrahydrofuran-3-yl)pyrazole-4-carboxamide] are 7.00 to 8.00, 7.00 to 8.00, 5.00 to 6.00 and 5.00 to 6.00.
For the compound `COc1ccc(F)cc1C(=O)NCc1ccc(-c2nn(C3CCCC3)c(N)c2C(N)=O)c(F)c1` [Example 136, 5-amino-1-cyclopentyl-3-[2-fluoro-4-[[(5-fluoro-2-methoxy-benzoyl)amino]methyl]phenyl]pyrazole-4-carboxamide], the pIC50 in test [1] is over 8.00; in test [2], over 8.00; on Recombinant EGFR it was 5.00 to 6.00; in test [3] (Homo sapiens, OCI-Ly10, 72 h) it was 7.00 to 8.00.
On to `COc1ccc(F)cc1C(=O)NCc1ccc(-c2nn(CCC(F)(F)F)c(N)c2C(N)=O)cc1` [Example 174, 5-amino-3-[4-[[(5-fluoro-2-methoxy-benzoyl)amino]methyl]phenyl]-1-(3,3,3-trifluoropropyl)pyrazole-4-carboxamide], for which the pIC50 is over 8.00 in test [1]; over 8.00 in test [2]; 5.00 to 6.00 on Recombinant EGFR; 7.00 to 8.00 in test [3] (Homo sapiens, OCI-Ly10, 72 h).
In the case of `COc1ccccc1C(=O)NCc1ccc(-c2nn(C(C)C(F)(F)F)c(N)c2C(N)=O)cc1` (stereo not drawn) [Example 121, 5-amino-3-[4-[[(2-methoxybenzoyl)amino]methyl]phenyl]-1-(2,2,2-trifluoro-1-methyl-ethyl)pyrazole-4-carboxamide], the pIC50 in test [1] was over 8.00; in test [2], over 8.00; at Recombinant EGFR it was 6.00 to 7.00; in test [3] (Homo sapiens, OCI-Ly10, 72 h), 7.00 to 8.00.
In the case of `COc1ccc(F)cc1C(=O)NCc1c(F)cc(-c2nn(C3CCCOC3)c(N)c2C(N)=O)cc1F` (stereo not drawn) [Example 158, 5-amino-3-[3,5-difluoro-4-[[(5-fluoro-2-methoxy-benzoyl)amino]methyl]phenyl]-1-tetrahydropyran-3-yl-pyrazole-4-carboxamide], the pIC50 in test [1] is 7.00 to 8.00; in test [2], 7.00 to 8.00; at Recombinant EGFR it was under 5.00; in test [3] (Homo sapiens, OCI-Ly10, 72 h), 6.00 to 7.00.
As to `COc1ccccc1C(=O)NCc1ccc(-c2nn(C3CCOCC3)c(N)c2C(N)=O)c(F)c1F` [Example 141, 5-amino-3-[2,3-difluoro-4-[[(2-methoxybenzoyl)amino]methyl]phenyl]-1-tetrahydropyran-4-yl-pyrazole-4-carboxamide], the pIC50 was 7.00 to 8.00 in test [1]; over 8.00 in test [2]; under 5.00 on Recombinant EGFR; 6.00 to 7.00 in test [3] (Homo sapiens, OCI-Ly10, 72 h).
The like results for `COc1ccc(F)cc1C(=O)NCc1ccc(-c2nn(C3CCCC3)c(N)c2C(N)=O)cc1` [Example 88, 5-amino-1-cyclopentyl-3-[4-[[(5-fluoro-2-methoxy-benzoyl)amino]methyl]phenyl]pyrazole-4-carboxamide] were, in that order, over 8.00, over 8.00, 6.00 to 7.00 and over 8.00.
On the same counts, the results for `COc1ccccc1C(=O)NCc1ccc(-c2nn(C3CCC4(CC3)COC4)c(N)c2C(N)=O)cc1` [Example 71, 5-amino-3-[4-[[(2-methoxybenzoyl)amino]methyl]phenyl]-1-(2-oxaspiro[3.5]nonan-7-yl)pyrazole-4-carboxamide] are over 8.00, over 8.00, 6.00 to 7.00 and 7.00 to 8.00.
In the case of `COc1ccccc1C(=O)NCc1ccc(-c2nn(-c3ccccc3F)c(N)c2C(N)=O)cc1` [Example 39, 5-amino-1-(2-fluorophenyl)-3-[4-[[(2-methoxybenzoyl)amino]methyl]phenyl]pyrazole-4-carboxamide], the pIC50 in test [1] was over 8.00; in test [2], over 8.00; on Recombinant EGFR, 6.00 to 7.00; in test [3] (Homo sapiens, OCI-Ly10, 72 h) it was 7.00 to 8.00.
As to `COc1ccccc1C(=O)NCc1ccc(-c2nn(CCN3CCOCC3)c(N)c2C(N)=O)cc1` [Example 9, 5-Amino-3-[4-[[(2-methoxybenzoyl)amino]methyl]phenyl]-1-(2-morpholinoethyl)pyrazole-4-carboxamide], the pIC50 in test [1] is 7.00 to 8.00; in test [2] it was 7.00 to 8.00; at Recombinant EGFR it was 5.00 to 6.00; in test [3] (Homo sapiens, OCI-Ly10, 72 h) it was 6.00 to 7.00.
Take `COc1ccccc1C(=O)NCc1ccc(-c2nn(C3CCCC3F)c(N)c2C(N)=O)cc1` (stereo not drawn) [Example 103, 5-amino-1-(2-fluorocyclopentyl)-3-[4-[[(2-methoxybenzoyl)amino]methyl]phenyl]pyrazole-4-carboxamide]: the pIC50 in test [1] was over 8.00; in test [2], over 8.00; at Recombinant EGFR, 5.00 to 6.00; in test [3] (Homo sapiens, OCI-Ly10, 72 h), 7.00 to 8.00.
For `COc1ccccc1C(=O)NCc1ccc(-c2nn(-c3ccc(F)cc3)c(N)c2C(N)=O)cc1` [Example 43, 5-amino-1-(4-fluorophenyl)-3-[4-[[(2-methoxybenzoyl)amino]methyl]phenyl]pyrazole-4-carboxamide], the pIC50 in test [1] is over 8.00; in test [2], over 8.00; at Recombinant EGFR, 6.00 to 7.00; in test [3] (Homo sapiens, OCI-Ly10, 72 h), 7.00 to 8.00.
